Laboratory results published in ChEMBL document CHEMBL1909281, “FDA-approved drug labeling for the study of drug-induced liver injury” (Drug Discov Today, 2011).

Tested on: Hepatotoxicity
Test: FDA Liver Toxicity Knowledge Base Benchmark Dataset (LTKB-BD) drugs of most concern for DILI

SMILES | LTKB_BD DILI severity score | LTKB_BD DILI severity score (Liver)
CCCCCCCCCCC[C@@H](C[C@@H]1OC(=O)[C@H]1CCCCCC)OC(=O)[C@H](CC(C)C)NC=O [ORLISTAT] | 8 | 
C[C@]12COC(=O)C[C@@H]1CC[C@@H]1[C@@H]2CC[C@@]2(C)[C@H]1CC[C@]2(C)O [OXANDROLONE] | 8 | 
C[C@]12C/C(=C/O)C(=O)C[C@@H]1CC[C@@H]1[C@@H]2CC[C@@]2(C)[C@H]1CC[C@]2(C)O [OXYMETHOLONE] | 8 | 
CCCc1cc(=O)[nH]c(=S)[nH]1 [PROPYLTHIOURACIL] |  | 8
CO[C@H]1/C=C/O[C@@]2(C)Oc3c(C)c(O)c4c(O)c(c(/C=N/N5CCN(C)CC5)c(O)c4c3C2=O)NC(=O)/C(C)=C\C=C\[C@H](C)[C@H](O)[C@@H](C)[C@@H](O)[C@@H](C)[C@H](OC(C)=O)[C@@H]1C [RIFAMPIN] | 8 | 
CC(C)c1nc(CN(C)C(=O)N[C@H](C(=O)N[C@@H](Cc2ccccc2)C[C@H](O)[C@H](Cc2ccccc2)NC(=O)OCc2cncs2)C(C)C)cs1 [RITONAVIR] | 5 | 
Cc1cn([C@H]2C=C[C@@H](CO)O2)c(=O)[nH]c1=O [STAVUDINE] | 8 | 
CN(N=O)C(=O)N[C@@H](C=O)[C@@H](O)[C@H](O)[C@H](O)CO [STREPTOZOCIN] | 3 | 
Cc1cc(NS(=O)(=O)c2ccc(N)cc2)no1 [SULFAMETHOXAZOLE] | 7 | 
CCN(CC)CCNC(=O)c1c(C)[nH]c(/C=C2\C(=O)Nc3ccc(F)cc32)c1C [SUNITINIB] | 8 | 
Nc1c2c(nc3ccccc13)CCCC2 [TACRINE] |  | 7
C[C@H](Cn1cnc2c(N)ncnc21)OCP(=O)(O)O [TENOFOVIR ANHYDROUS] | 8 | 
CN(C/C=C/C#CC(C)(C)C)Cc1cccc2ccccc12 [TERBINAFINE] | 8 | 
Clc1ccccc1CN1CCc2sccc2C1 [TICLOPIDINE] |  | 4
Cc1ccc(C(=O)c2cc(O)c(O)c([N+](=O)[O-])c2)cc1 [TOLCAPONE] |  | 8
COc1cc(C(=O)NS(=O)(=O)c2ccccc2C)ccc1Cc1cn(C)c2ccc(NC(=O)OC3CCCC3)cc12 [ZAFIRLUKAST] | 8 | 
Nc1ccn([C@H]2CC[C@@H](CO)O2)c(=O)n1 [ZALCITABINE] |  | 8
Cc1cn([C@H]2C[C@H](N=[N+]=[N-])[C@@H](CO)O2)c(=O)[nH]c1=O [ZIDOVUDINE] | 8 | 
CC(c1cc2ccccc2s1)N(O)C(N)=O (centres undefined) [ZILEUTON] | 5 | 
